Converted amounts (≈) assume the structure as drawn. Like-named read-outs stand apart in the source and are kept apart here.
How the values were obtained:
[1] = system: Treponema hyodicenterie 78/A; assay: MIC against Spirochaeta (Table 3); settings: 48 h
[2] = system: Staphylococcus aureus N262; assay: Antibacterial activity against clinically isolated S. aureus (agar dilution MIC, Table 2); type: cell-based; settings: Staphylococcus aureus; strain N262; agar dilution; Mueller Hinton medium; 10^6 CFU/ml; read-out: MIC
Experimental: (§1) DMPPC: Methicillin, KM: Kanamycin, GM: Gentamycin, EM: Erythromycin (Note
(§2) Determined by the agar dilution method. Medium: Mueller Hinton medium
(§3) (Difco, USA) Inoculum Size: 10^6 CFU/ml, 37° C.

[3] = system: Staphylococcus aureus C4; assay: as above; type: cell-based; settings: Staphylococcus aureus, C4
Experimental: as §1, §2, §3

[4] = system: Staphylococcus aureus C3; assay: as above; type: cell-based; settings: Staphylococcus aureus; strain C3; agar dilution; Mueller Hinton medium; 10^6 CFU/ml; read-out: MIC
Experimental: as §1, §2, §3

[5] = system: Staphylococcus aureus N267; assay: as above; type: cell-based; settings: Staphylococcus aureus; strain N267; agar dilution; Mueller Hinton medium; 10^6 CFU/ml; read-out: MIC
Experimental: as §1, §2, §3

[6] = system: Staphylococcus aureus TS-65; assay: as above; type: cell-based; settings: Staphylococcus aureus, TS65; strain TS-65; agar dilution; Mueller Hinton medium; 10^6 CFU/ml; read-out: MIC
Experimental: as §1, §2, §3

[7] = system: Staphylococcus aureus N247; assay: as above; type: cell-based; settings: Staphylococcus aureus; strain N247; agar dilution; Mueller Hinton medium; 10^6 CFU/ml; read-out: MIC
Experimental: as §1, §2, §3

[8] = system: Staphylococcus aureus N176-3; assay: as above; type: cell-based; settings: Staphylococcus aureus, N1763; strain N176-3; agar dilution; Mueller Hinton medium; 10^6 CFU/ml; read-out: MIC
Experimental: as §1, §2, §3

[9] = system: Staphylococcus aureus N237; assay: as above; type: cell-based; settings: Staphylococcus aureus; strain N237; agar dilution; Mueller Hinton medium; 10^6 CFU/ml; read-out: MIC
Experimental: as §1, §2, §3

[10] = system: Staphylococcus aureus N326; assay: as above; type: cell-based; settings: Staphylococcus aureus; strain N326; agar dilution; Mueller Hinton medium; 10^6 CFU/ml; read-out: MIC
Experimental: as §1, §2, §3

[11] = system: Staphylococcus aureus TST-75; assay: as above; type: cell-based; settings: Staphylococcus aureus, TST75; strain TST-75; agar dilution; Mueller Hinton medium; 10^6 CFU/ml; read-out: MIC
Experimental: as §1, §2, §3

[12] = system: Staphylococcus aureus N121; assay: as above; type: cell-based; settings: Staphylococcus aureus; strain N121; agar dilution; Mueller Hinton medium; 10^6 CFU/ml; read-out: MIC
Experimental: as §1, §2, §3

[13] = system: Staphylococcus aureus C10; assay: as above; type: cell-based; settings: Staphylococcus aureus; strain C10; agar dilution; Mueller Hinton medium; 10^6 CFU/ml; read-out: MIC
Experimental: as §1, §2, §3

[14] = system: Staphylococcus aureus FDA 209P; assay: as above; type: cell-based; settings: Staphylococcus aureus, FDA209P; strain FDA 209P; agar dilution; Mueller Hinton medium; 10^6 CFU/ml; read-out: MIC
Experimental: as §1, §2, §3

[15] = system: Staphylococcus aureus N8; assay: as above; type: cell-based; settings: Staphylococcus aureus; strain N8; agar dilution; Mueller Hinton medium; 10^6 CFU/ml; read-out: MIC
Experimental: as §1, §2, §3

[16] = system: Escherichia coli NIHJ JC 2; assay: Antibacterial activity (broth dilution MIC, Table 1); type: cell-based
Experimental: (§4) The biological activities of TAN-1057 are described as follows.
(§5) (Note 1) Measurement was conducted by employing a medium consisting of
(§6) Bacto Antibiotic Medium 3 (Difco Laboratories, USA)(17.5 g), Bacto yeast
(§7) extract(Difco Laboratories, USA)(5.0 g) and distilled water(pH
(§8) […])(1000 ml), using approximately 10^5 colony forming unit/ml
(§9) of inoculum, by means of the broth dilution method.

[17] = system: Staphylococcus epidermidis IFO 3762; assay: as above; type: cell-based
Experimental: as §4, §5, §6, §7, §8, §9

[18] = system: Micrococcus luteus IFO 12708; assay: as above; type: cell-based
Experimental: as §4, §5, §6, §7, §8, §9

[19] = system: Bacillus megaterium IFO 12108; assay: as above; type: cell-based; settings: Priestia megaterium
Experimental: as §4, §5, §6, §7, §8, §9

[20] = system: Bacillus subtilis NIHJ PCI 219; assay: as above; type: cell-based
Experimental: as §4, §5, §6, §7, §8, §9

[21] = system: Proteus vulgaris IFO 3988; assay: as above; type: cell-based
Experimental: as §4, §5, §6, §7, §8, §9

[22] = system: Bacillus cereus FDA 5; assay: as above; type: cell-based
Experimental: as §4, §5, §6, §7, §8, §9

[23] = system: Pseudomonas aeruginosa IFO 3080; assay: as above; type: cell-based
Experimental: as §4, §5, §6, §7, §8, §9

[24] = system: Aeromonas caviae NCW; assay: as above; type: cell-based
Experimental: as §4, §5, §6, §7, §8, §9

[25] = system: Acinetobacter calcoaceticus IFO 13006; assay: as above; type: cell-based
Experimental: as §4, §5, §6, §7, §8, §9

[26] = system: Bacteroides fladilis ATCC 2509; assay: MIC against anaerobic bacteria (Table 3); type: cell-based; settings: ATCC2509, 10^6 CFU/ml, GAM medium, Gas Pack, 37° C., 18 hours
[27] = pH 5, broth dilution, read-out: Minimum Inhibitory Conc. (MIC)
[28] = pH 7, read-out: Minimum Inhibitory Conc. (MIC)
[29] = pH 9, broth dilution, read-out: Minimum Inhibitory Conc. (MIC)

CN(C(=O)C[C@@H](N)CCCNC(=N)N)[C@H]1CNC(NC(N)=O)=NC1=O [TAN-1057A] gave an MIC [1] of 100 µg/mL (≈ 281 µM), an MIC [2] of 0.78 µg/mL (≈ 2.19 µM) and an MIC [3] of 6.25 µg/mL (≈ 17.6 µM). For the same molecule, the MIC [4] was 0.78 µg/mL (≈ 2.19 µM), the MIC [5] was ≤ 0.2 µg/mL and the MIC [6] was 0.78 µg/mL (≈ 2.19 µM). The MIC [7] was 1.56 µg/mL (≈ 4.39 µM), the MIC [8] was 1.56 µg/mL (≈ 4.39 µM) and the MIC [9] was 0.78 µg/mL (≈ 2.19 µM). It also gave an MIC [10] of 0.78 µg/mL (≈ 2.19 µM), an MIC [11] of 0.78 µg/mL (≈ 2.19 µM) and an MIC [12] of 0.78 µg/mL (≈ 2.19 µM). For the same molecule, the MIC [13] was 0.78 µg/mL (≈ 2.19 µM), the MIC [14] was 0.39 µg/mL (≈ 1.1 µM) and the MIC [15] was 0.78 µg/mL (≈ 2.19 µM). The MIC ([16]; NIHJJC2, pH 5, read-out: Minimum Inhibitory Conc. (MIC)) was > 100 µg/mL, the MIC ([16]; NIHJJC2, pH 7, read-out: Minimum Inhibitory Conc. (MIC)) was > 100 µg/mL and the MIC ([16]; NIHJJC2, pH 9, read-out: Minimum Inhibitory Conc. (MIC)) was 25 µg/mL (≈ 70.3 µM). The MIC ([17]; IFO3762, pH 5, read-out: Minimum Inhibitory Conc. (MIC)) was > 100 µg/mL, the MIC ([17]; IFO3762, pH 7, read-out: Minimum Inhibitory Conc. (MIC)) was 1.56 µg/mL (≈ 4.39 µM) and the MIC ([17]; IFO3762, pH 9, read-out: Minimum Inhibitory Conc. (MIC)) was < 0.1 µg/mL. The MIC ([18]; IFO12708, pH 7, read-out: Minimum Inhibitory Conc. (MIC)) was 1.56 µg/mL (≈ 4.39 µM), the MIC ([18]; IFO12708, pH 9, read-out: Minimum Inhibitory Conc. (MIC)) was 0.2 µg/mL (≈ 0.563 µM) and the MIC ([19]; IFO12108, pH 7, read-out: Minimum Inhibitory Conc. (MIC)) was 12.5 µg/mL (≈ 35.2 µM). The MIC ([19]; IFO12108, pH 5, broth dilution, read-out: Minimum Inhibitory Conc. (MIC)) was 25 µg/mL (≈ 70.3 µM), the MIC ([19]; IFO12108, pH 9, broth dilution, read-out: Minimum Inhibitory Conc. (MIC)) was 1.56 µg/mL (≈ 4.39 µM) and the MIC [20, 27] was 50 µg/mL (≈ 141 µM). For the same molecule, the MIC [20, 28] was 12.5 µg/mL (≈ 35.2 µM), the MIC [20, 29] was 1.56 µg/mL (≈ 4.39 µM) and the MIC ([21]; IFO3988, pH 5, read-out: Minimum Inhibitory Conc. (MIC)) was > 100 µg/mL. The MIC ([21]; IFO3988, pH 7, read-out: Minimum Inhibitory Conc. (MIC)) was > 100 µg/mL, the MIC ([21]; IFO3988, pH 9, read-out: Minimum Inhibitory Conc. (MIC)) was 50 µg/mL (≈ 141 µM) and the MIC ([22]; FDA5, pH 5, read-out: Minimum Inhibitory Conc. (MIC)) was 6.25 µg/mL (≈ 17.6 µM). For the same molecule, the MIC ([22]; FDA5, pH 7, broth dilution, read-out: Minimum Inhibitory Conc. (MIC)) was 25 µg/mL (≈ 70.3 µM), the MIC ([22]; FDA5, pH 9, read-out: Minimum Inhibitory Conc. (MIC)) was 3.13 µg/mL (≈ 8.81 µM) and the MIC ([23]; IFO3080, pH 5, read-out: Minimum Inhibitory Conc. (MIC)) was > 100 µg/mL. The MIC ([23]; IFO3080, pH 7, read-out: Minimum Inhibitory Conc. (MIC)) was > 100 µg/mL, the MIC ([23]; IFO3080, pH 9, read-out: Minimum Inhibitory Conc. (MIC)) was 100 µg/mL (≈ 281 µM) and the MIC [24, 27] was 100 µg/mL (≈ 281 µM). It also gave an MIC [24, 28] of 6.25 µg/mL (≈ 17.6 µM), an MIC [24, 29] of 1.56 µg/mL (≈ 4.39 µM) and an MIC ([25]; IFO13006, pH 5, broth dilution, read-out: Minimum Inhibitory Conc. (MIC)) of 1.56 µg/mL (≈ 4.39 µM). The MIC ([25]; IFO13006, pH 7, read-out: Minimum Inhibitory Conc. (MIC)) was 6.25 µg/mL (≈ 17.6 µM), the MIC ([25]; IFO13006, pH 9, broth dilution, read-out: Minimum Inhibitory Conc. (MIC)) was 1.56 µg/mL (≈ 4.39 µM) and the MIC [26] was 50 µg/mL (≈ 141 µM).

Reference: US4971965A, “Antibiotics TAN-1057” (Takeda Chemical Industries, Ltd., priority 1988, dated 1990)
